{"source": "patent US20160015743A1", "about": "“METHODS FOR TREATING CANCER” (priority 2013, published 2016)", "key": {"[1]": {"target": "T1, cyclin D1 (Homo sapiens, UniProt P24385)", "T1 construct": "endogenous in cells; host or cells: HCT-116", "assay": "In vivo SUMOylation and ubiquitylation assay (co-immunoprecipitation, western blotting)", "format": "cell-based", "procedure": "(§1) (a, b&d) In vivo SUMOylation and ubiquitination assay. As for (a), HCT-116 cells were treated with As2O3 for 16 h (2.5 μM). Cell lysates were harvested at different time points (0, 1, 4 and 16 h). As for (b), WT or mutant cyclin D1 (K149R, T286A, DM) construct was stably transfected into HCT-116 cells. Then the cells were treated with As2O3 for 1 h. As for (d), HCT-116 cells were treated with As2O3 for 16 h (2.5 μM) in the absence or presence of MG132 (10 μM, 6 h of incubation). The SUMOylated and ubiquitylated cyclin D1 was detected as described in FIG. 1f. Cyclin D1 protein levels were detected using anti-cyclin D1 antibody (a&d) or anti-HA-antibody (b) by western blotting. (c) WT or mutant cyclin D1 (K149R, T286A, DM) construct was stably transfected into HCT-116 cells. Then the cells were treated with As2O3 for 16 h. Cyclin D1 protein levels were detected using anti-HA-antibody by western blotting. (e) TUNEL staining. WT or mutant cyclin D1 (K149R, T286A) construct was stably transfected into HCT-116 cells. Then the cells were treated with As2O3 (2.5 μM) for 16 h. The apoptotic cells were detected using Promega's DEADEND Colorimetric TUNEL System. Yellow arrows are pointing at apoptotic cells. (f) Flow cytometry. WT or mutant cyclin D1 (K149R) construct was stably transfected into HCT-116 cells. Then the cells were treated with As2O3 for 16 h (2.5 μM). Cell cycle progression was detected by flow cytometry. (As, arsenic trioxide)\n(§2) SUMOylated cyclin D1 or ubiquitylated cyclin D1 was detected by co-immunoprecipitation using anti-SUMO-2/3 antibody or anti-ubiquitin antibody conjugated beads (Enzo Life Science), followed by immunoblotting with anti-cyclin D1 antibody or anti-HA antibody for cyclin D1 detection."}, "[2]": {"tested_on": "cyclin D1", "assay": "Cyclin D1 protein levels by western blotting in transfected HEK293 cells with or without MG132", "format": "cell-based, human", "procedure": "Ubc9 (a), SUMO1 (b), SUMO2 (c), SUMO3 (d) together with SENP1 constructs was co-transfected with cyclin D1 into HEK293 cells in the absence or presence of proteasome inhibitor MG132 (10 μM, 6 h of incubation). Cyclin D1 protein levels were detected through western blotting. (e) siRNA specific for Ubc9 was transiently transfected in human colon cancer cell HCT116 cells. Endogenous cyclin D1 protein levels were detected through western blotting. (f) In vivo SUMOylation and ubiquitination assay. HA-cyclin D1 was co-transfected with Ubc9 and SENP1 expression plasmids into HEK293 cells in the presence of MG132 (10 μM, 6 h of incubation). […]\n(a) Cell lysates were extracted from different tissues of wt or Itch-KO mice. Endogenous cyclin D1 protein levels were detected using anti-cyclin D1 antibody by western blotting. […] Endogenous cyclin D1 protein levels were detected using anti-cyclin D1 antibody by western blotting. […] Cyclin D1 protein levels were detected using anti-HA antibody by western blotting. […] 24 h after transfection, the cell lysates were collected, the ubiquitylated cyclin D1 was detected as described in FIG. 1f. […] Cyclin D1 protein levels were detected using anti-HA antibody by western blotting. […]\nWestern blotting and immunoprecipitation (IP) were performed as previously described (54). The interaction between endogenous Cyclin D1 and Itch was determined in HEK293 cells. […]"}, "[3]": {"target": "T2, cyclin D1 (Homo sapiens, UniProt P24385, T286A)", "T2 construct": "endogenous in cells; host or cells: HCT-116", "T2 sequence (P24385 whole entry T286A)": "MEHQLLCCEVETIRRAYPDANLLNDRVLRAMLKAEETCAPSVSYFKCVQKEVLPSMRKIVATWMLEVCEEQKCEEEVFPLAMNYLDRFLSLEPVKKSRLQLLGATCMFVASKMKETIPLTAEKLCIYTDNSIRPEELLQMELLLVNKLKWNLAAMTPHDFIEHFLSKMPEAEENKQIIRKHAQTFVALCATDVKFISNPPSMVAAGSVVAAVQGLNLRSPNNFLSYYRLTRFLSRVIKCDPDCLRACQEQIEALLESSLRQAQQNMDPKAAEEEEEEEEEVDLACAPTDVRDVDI", "assay": "In vivo SUMOylation and ubiquitylation assay (co-immunoprecipitation, western blotting)", "format": "cell-based", "conditions": "HCT-116 cells stably expressing T286A mutant cyclin D1, treated 1 and 16 hours", "procedure": "as §1, §2"}, "[4]": {"target": "T3, cyclin D1 (Homo sapiens, UniProt P24385, K149R)", "T3 construct": "endogenous in cells; host or cells: HCT-116", "T3 sequence (P24385 whole entry K149R)": "as the sequence (P24385 whole entry T286A) above, with K149R, A286T counted along it", "assay": "Cyclin D1 protein levels by western blotting in HCT-116 cells", "format": "cell-based", "conditions": "HCT-116 cells stably expressing K149R mutant cyclin D1, treated 16 h", "procedure": "as §1\n(§3) 48 h later, the cyclin D1 protein levels were detected through western blotting.\n(§4) Western blotting and immunoprecipitation (IP) were performed as previously described (54). The interaction between endogenous Cyclin D1 and Itch was determined in HEK293 cells. Proteasome inhibitor MG132 (10 μM) (Sigma, St. Louis, Mo.) was added to the cell culture 6 hours before cells were harvested for immunoprecipitation assay. […]"}, "[5]": {"target": "T4, cyclin D1 (Homo sapiens, UniProt P24385, K149R/T286A)", "T4 construct": "endogenous in cells; host or cells: HCT-116", "T4 sequence (P24385 whole entry K149R/T286A)": "as the sequence (P24385 whole entry T286A) above, with K149R counted along it", "assay": "Cyclin D1 protein levels by western blotting in HCT-116 cells", "format": "cell-based", "conditions": "HCT-116 cells stably expressing K149R/T286A mutant cyclin D1, treated 16 h", "procedure": "as §1, §3, §4"}, "[6]": {"tested_on": "cyclin D1", "assay": "Cyclin D1 protein levels by western blotting in HCT-116 cells", "format": "cell-based, human", "conditions": "HCT-116 cells, Itch siRNA, As2O3 2.5 μM, 48 h", "procedure": "as §1, §3, §4"}, "[7]": {"tested_on": "HCT-116 cells", "assay": "TUNEL staining of apoptotic cells", "format": "cell-based, human", "conditions": "16 h", "procedure": "as §1\nCell apoptosis was detected using fluorescent in situ terminal deoxynucleotidyl transferase-mediated uridine 5′-triphosphate-biotin nick end labeling (TUNEL staining). Sections were first permeabilized in 0.1% Triton X-100 in phosphate-buffered saline (PBS) for 8 mins. TUNEL reaction mixture was obtained by adding terminal deoxynucleotidyl transferase to nucleotide mixture, as instructed by the manufacturer's manual (DEADEND Fluorometric TUNEL System, Promega). Sections were counterstained nuclei with 4′-6-Diamidino-2-phenylindole (DAPI)."}, "[8]": {"tested_on": "HCT-116 cells", "assay": "Cell cycle analysis by flow cytometry", "format": "cell-based, human", "conditions": "HCT-116 cells transfected with K149R mutant cyclin D1 compared with WT, As2O3 2.5 μM, 16 h", "procedure": "as §1, with “WT or mutant cyclin D1 (K149R, T286A) construct was stably transfected into HCT-116 cells. Then the cells were treated with As2O3 (2.5 μM) for 16 h.” left out, “Yellow arrows are pointing at apoptotic cells. (f) Flow cytometry. WT or mutant cyclin D1 (K149R) construct was stably transfected into HCT-116 cells. Then the cells were treated with As2O3 for 16 h (2.5 μM).” left out, “(As, arsenic trioxide)” left out\nFACS analysis was performed as described in the research by Santra et al (55). […] FACS samples were analyzed with a FACSCANTO Flow Cytometry System (BD Biosciences). And the data were analyzed using FlowJo 7.6 software according to the manufacturer's instruction."}, "[9]": {"tested_on": "solid and liquid tumors", "conditions": "references 48-51; cited from earlier work"}, "[10]": {"tested_on": "tumor", "conditions": "reference 52; cited from earlier work"}}, "note": "Where a SMILES comes first, the peptide text is derived from it. The star is where a group is joined. Cbz = O=C(OCc1ccccc1)*"}
{"compound": "CC(C)C[C@@H](C=O)NC(=O)[C@H](CC(C)C)NC(=O)[C@H](CC(C)C)NC(=O)OCc1ccccc1", "note": "[MG132] (Cbz-Leu-Leu-Leu-aldehyde)", "values": [{"measurement": "effect on As2O3-mediated cyclin D1 SUMOylation and polyubiquitination", "setting": "[1]; HCT-116 cells, As2O3 2.5 μM 16 h, MG132 10 μM 6 h", "value": "reversed"}, {"measurement": "effect on Itch-induced cyclin D1 degradation", "setting": "[2]; HEK293 cells co-transfected with Itch and cyclin D1, MG132 10 μM 6 h", "value": "reversed the effect of Itch on cyclin D1 degradation"}, {"measurement": "effect on degradation of cyclin D1 caused by Ubc9", "setting": "[2]; HEK293 cells co-transfected with Ubc9 and cyclin D1, MG132 10 μM 6 h", "value": "reversed the degradation of cyclin D1"}]}
{"compound": "arsenic trioxide [As2O3]", "values": [{"measurement": "SUMOylation, polyubiquitination and degradation of cyclin D1", "setting": "[1]; HCT-116 cells stably expressing WT cyclin D1, treated 1 and 16 hours", "value": "induced SUMOylation, polyubiquitination and degradation of cyclin D1"}, {"measurement": "SUMOylated- and polyubiquitinated-cyclin D1", "setting": "[1]; HCT-116 cells, As2O3 2.5 μM, 1 h after treatment", "value": "accumulated"}, {"measurement": "modified (SUMOylated/polyubiquitinated) cyclin D1", "setting": "[1]; HCT-116 cells, As2O3 2.5 μM, after 16 h treatment", "value": "disappeared"}, {"measurement": "SUMOylation, polyubiquitination and degradation of cyclin D1", "setting": "[3]", "value": "induced SUMOylation, polyubiquitination and degradation of cyclin D1"}, {"measurement": "degradation of cyclin D1", "setting": "[4]", "value": "no effect"}, {"measurement": "degradation of cyclin D1", "setting": "[5]", "value": "no effect"}, {"measurement": "degradation of cyclin D1 under silencing of Itch expression", "setting": "[6]", "value": "did not abrogated degradation of cyclin D1"}, {"measurement": "cell apoptosis (TUNEL)", "setting": "[7]; HCT-116 cells stably transfected with K149R mutant cyclin D1, As2O3 2.5 μM", "value": "much lower"}, {"measurement": "cell apoptosis (TUNEL)", "setting": "[7]; HCT-116 cells stably transfected with K149R mutant cyclin D1, As2O3 2.5 μM, listed as arsenic trioxide", "value": "significantly decreased"}, {"measurement": "cell apoptosis (TUNEL)", "setting": "[7]; HCT-116 cells stably transfected with T286A cyclin D1, As2O3 2.5 μM", "value": "induced accelerated cell apoptosis"}, {"measurement": "cell apoptosis (TUNEL)", "setting": "[7]; HCT-116 cells stably transfected with WT cyclin D1, As2O3 2.5 μM", "value": "induced accelerated cell apoptosis"}, {"measurement": "G1 arrest", "setting": "[8]", "value": "failed to induce efficient G1 arrest"}, {"measurement": "cell apoptosis in solid and liquid tumors", "setting": "[9]", "value": "induces cell apoptosis"}, {"measurement": "tumor size in nude mice", "setting": "[10]", "value": "tumor shrink"}]}
